# Source: patent publication US20210130549A1, “IPN hydrogel for preparation and application” (EASTING BIOTECHNOLOGY COMPANY LIMITED, priority 2019, published 2021)
# Assay: Hydrophilic drug release from drug-containing IPN hydrogel in sustained-release solution (HPLC, 272 nm)
# Assay type: physicochemical
# Conditions: from release curve FIG. 4; drug-loaded IPN hydrogel; sampling 30 minutes to 72 hours
# Procedure: The drug-containing hydrogel was placed in a sustained-release solution for drug release testing and taking the samples from sustained-release solution within a fixed time.
# Taking the samples with fixed time and test releasing concentration. The sampling time is 30 minutes, 60 minutes, 90 minutes, 180 minutes, 8 hours, 24 hours, 48 hours, and 72 hours.
# The subsequent drug concentration was analyzed by high performance liquid chromatography (HPLC). The water-based drug used caffeine for drug release, and the absorption wavelength of caffeine was 272 nm for measurement.
smiles,measurement,value
Cn1c(=O)c2c(ncn2C)n(C)c1=O [caffeine],release amount of caffeine in water,≥ 40%
